In BindingDB's records for doi:10.1016/s0028-3908(00)00022-8 (University of Frankfurt, 2000):

Columns and labels:
ATP receptor [1] = target: T1, ATP receptor (Xenopus sp., UniProt F6VH38)
T1 sequence (F6VH38 whole entry): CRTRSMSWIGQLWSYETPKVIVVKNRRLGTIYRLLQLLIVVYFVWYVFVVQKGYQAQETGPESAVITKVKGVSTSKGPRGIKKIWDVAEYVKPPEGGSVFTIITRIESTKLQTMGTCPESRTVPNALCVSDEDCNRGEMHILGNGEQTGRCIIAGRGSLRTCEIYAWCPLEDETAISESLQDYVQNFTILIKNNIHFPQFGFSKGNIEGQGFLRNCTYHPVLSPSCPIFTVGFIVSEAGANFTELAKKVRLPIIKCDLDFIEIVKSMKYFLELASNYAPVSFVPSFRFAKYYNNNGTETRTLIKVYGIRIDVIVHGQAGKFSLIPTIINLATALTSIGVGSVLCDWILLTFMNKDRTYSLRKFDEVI

ATP receptor [2] = target: T2, ATP receptor (Xenopus sp., UniProt Q64F95)
T2 sequence (Q64F95 whole entry): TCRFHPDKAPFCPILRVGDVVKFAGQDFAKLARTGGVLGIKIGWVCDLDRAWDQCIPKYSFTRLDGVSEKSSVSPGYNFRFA

P2X purinoceptor = target: T3, P2X purinoceptor (Xenopus sp., UniProt Q9DDP1)
T3 sequence (Q9DDP1 whole entry): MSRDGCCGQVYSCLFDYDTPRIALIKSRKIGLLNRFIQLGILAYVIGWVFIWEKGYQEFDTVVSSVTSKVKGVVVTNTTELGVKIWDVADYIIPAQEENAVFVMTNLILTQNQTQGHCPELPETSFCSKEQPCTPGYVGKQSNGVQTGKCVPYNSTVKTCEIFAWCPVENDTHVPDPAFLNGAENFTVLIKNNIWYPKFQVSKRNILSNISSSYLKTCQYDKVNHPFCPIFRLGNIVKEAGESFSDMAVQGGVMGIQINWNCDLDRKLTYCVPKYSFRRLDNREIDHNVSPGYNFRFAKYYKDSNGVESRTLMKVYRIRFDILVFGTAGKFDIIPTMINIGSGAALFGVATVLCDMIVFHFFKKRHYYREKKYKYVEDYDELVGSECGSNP

Ki (ATP receptor [1]): 770 nM | Ki (ATP receptor [2]): 1620 nM | Ki (P2X purinoceptor): > 10 µM
Structure (SMILES): O=C(Nc1ccc(C(=O)Nc2ccc(C(=O)Nc3ccc(S(=O)(=O)O)c4cc(S(=O)(=O)O)cc(S(=O)(=O)O)c34)cc2)cc1)Nc1ccc(C(=O)Nc2ccc(C(=O)Nc3ccc(S(=O)(=O)O)c4cc(S(=O)(=O)O)cc(S(=O)(=O)O)c34)cc2)cc1 [CAS_5311315]
